Laboratory results reported in PMC7582929, “Characterization of Cetacean Proline-Rich Antimicrobial Peptides Displaying Activity against ESKAPE Pathogens” (International Journal of Molecular Sciences, 2020).
Read-outs that look alike come from different tables or passages of the source. Ends that are not written are not given here.

Tests used:
[1] = system: E. coli BW25113; type: cell-based, Escherichia coli
Excerpt: (§1) The following microbial reference strains were utilized: Escherichia coli BW25113, E. coli ATCC 25922, E. coli ML35p, Enterococcus faecium ATCC 19434, Staphylococcus aureus ATCC 25923, Klebsiella pneumoniae ATCC 700603, Acinetobacter baumannii ATCC 19606, Pseudomonas aeruginosa ATCC 27853, Stenotrophomonas maltophilia ATCC 13637, Candida albicans ATCC 90029. The ΔsbmA strain of E. coli BW25113 belongs to the KEIO collection and the clinical isolate of Enterobacter agglomerans was kindly provided by Prof. C. Lagatolla from the Microbiology Laboratory of the University of Trieste. All the growth media were purchased from Difco (part of Thermo Fisher Scientific, MA, USA).
(§2) Bacteria were grown in Mueller-Hinton broth (MHB), except E. faecium, which was grown overnight in brain-heart infusion (BHI); E. coli BW25113 ΔsbmA was grown in the presence of 50 μg/mL kanamycin. C. albicans was grown in Sabouraud broth.
(§3) All the strains were grown overnight at 37 °C (except E. agglomerans, S. maltophilia and C. albicans, which were grown at 30 °C), with shaking at 140 rpm. The overnight bacterial cultures were then diluted approximately 1:40 in fresh growth medium and incubated at 37 °C or 30 °C with shaking (140 rpm) until an OD600 of between 0.3 and 0.5 was reached.
(§4) The minimum inhibitory concentration was determined by the broth microdilution method according to the NCCLS protocol. Briefly, an overnight bacterial or fungal culture was diluted in fresh MH or Sabouraud broth, respectively (300 µL O/N culture in 10 mL MHB/Sabouraud) and the culture was let grow at 37 °C or 30 °C to reach OD600 between 0.3 and 0.5. Serial two-fold dilutions of peptides were then performed in culture medium (Sabouraud, MHB or 20% MHB in PBS), to a final volume of 50 µL in the wells of a round bottom microtiter plate (Sarstedt, Milan, Italy), and then the bacterial suspension with a load of 5 × 10^5 CFU/mL was added to the plate, halving the final concentration of bacteria and peptides. The culture was grown at 37 °C or 30 °C and the MIC was determined after 18h by visual inspection as the first clear well. The assessment was performed taking into consideration at least three independent experiments performed in duplicate.

[2] = system: bacterial protein synthesis (E. coli extracts); assay: In vitro transcription/translation assay (firefly luciferase reporter); type: biochemical; details: E. coli lysate, 30 °C, 1 h, increasing peptide concentrations up to 25 µM, n ≥ 3
Procedure: Several PrAMPs derived from artiodactyl or insect peptides act by interfering with bacterial protein synthesis. To evaluate if the cePrAMPs also targeted this process, in vitro transcription/translation assays were carried out in their presence, assessing the inhibition of the synthesis of a reporter luciferase (Figure 3). […].  Figure 3 Luciferase activity after in vitro transcription/translation reactions in presence of cePrAMPs. E. coli extracts were incubated with the firefly luciferase reporter DNA in the presence of increasing concentrations of cePrAMPs. Results are presented as the percentage with respect to control samples treated with only RNase-free water. Average and standard deviation of at least three independent experiments (n ≥ 3).
Reactions were set up using lysates of the RTS 100 E. coli HY kit from Biotechrabbit (Berlin, Germany) according to the user manual. Briefly, 1 μL of peptide solution was added to each reaction to reach the desired final concentration in a final volume of 6 μL. […] The presence of luciferase reporter protein was quantified by measuring its luminescence using a Infinite M200 plate reader (Tecan, Männedorf, Switzerland). The relative luminescence values for all the assays were calculated as a percentage of the positive control (reactions with nuclease-free water instead of the peptides) using three independent replicates. […]

[3] = system: C. albicans ATCC 90029; type: cell-based, Candida albicans; details: ATCC 90029, 18 h
Excerpt: as §1, §2, §3, §4

[4] = Resuspension of the peptides in Mueller-Hinton broth; type: physicochemical; details: 100% Mueller-Hinton broth
Excerpt: . To solve this issue and determine how it affected antimicrobial activity, bacterial susceptibility tests were repeated with most strains using 20% Mueller-Hinton broth. With some exceptions, these four peptides did indeed increase their activity in this medium, as did the others, in such a manner that the relative differences remained substantially unchanged (Table S1). Therefore, sequence-activity considerations remain valid.

[5] = system: S. maltophilia ATCC 13637; type: cell-based, Stenotrophomonas maltophilia; details: ATCC 13637, 18 h
Excerpt: as §1, §2, §3, §4

[6] = system: E. faecium ATCC 19434; type: cell-based, Enterococcus faecium; details: ATCC 19434, 18 h
Excerpt: as §1, §2, §3, §4

[7] = system: P. aeruginosa ATCC 27853; type: cell-based, Pseudomonas aeruginosa; details: 20% Mueller-Hinton broth in PBS, median of n ≥ 3
Excerpt: as §1, §2, §3
(§5) The minimum inhibitory concentration was determined by the broth microdilution method according to the NCCLS protocol. […]

[8] = system: E. agglomerans—clinical isolate; type: cell-based, Enterobacter agglomerans; details: 18 h
Excerpt: as §1, §2, §3, §4

[9] = system: K. pneumoniae ATCC 700603; type: cell-based, Klebsiella pneumoniae; details: 20% Mueller-Hinton broth in PBS, median of n ≥ 3
Excerpt: as §1, §2, §3, §5

[10] = system: E. coli BW25113—Δ SbmA; type: cell-based, Escherichia coli; details: E. coli BW25113 ΔSbmA, median of n ≥ 3
Excerpt: as §1, §2, §3, §4

[11] = system: panel of reference pathogenic bacterial and fungal strains; type: cell-based
Excerpt: as §1, §2, §3, §4

[12] = system: S. aureus ATCC 25923; type: cell-based, Staphylococcus aureus; details: ATCC 25923, 18 h
Excerpt: as §1, §2, §3, §5

[13] = system: human red blood cells (hRBCs); type: cell-based
Procedure: Figure 4 Evaluation of in vitro toxicity of CePrAMPs. (A) Hemolysis assay against human red blood cells (hRBCs), re-suspended in PBS at 4% (v/v) concentrations, measured as the absorbance of released hemoglobin (540 nm) after 1 h of exposure to the peptides. Results are reported as percentages with respect to hRBCs treated for 1 h with 1% Triton X-100 (considered as 100%), and are the average of three independent experiments (n = 3); (B,C) Evaluation via MTT assay of the viability of the indicated eukaryotic cell lines after exposure to the peptides. HaCat (B) or MEC-1 (C) cells were incubated with the different peptides at increasing concentrations for 21 h (B) or 20 h (C), before treating cells with MTT. Results are reported as the percentage of viable cells with respect to the untreated control, and are the average of three independent experiments (n = 3) (* = p < 0.05; ** = p < 0.01).
The lytic potential towards eukaryotic cell membranes was assessed by measuring the release of hemoglobin from human red blood cells (hRBCs) after exposure to the peptides. hRBCs were collected from single donor- human whole blood (Cambridge Bioscience, UK), being isolated by centrifugation, washed three times with PBS, and resuspended to either 8% or 0.8% (v/v) in PBS. […]

[14] = 20% Mueller-Hinton broth in PBS
[15] = broth microdilution (NCCLS), Mueller-Hinton broth, 37 °C, 18 h, visual
[16] = against P. aeruginosa and E. faecium
[17] = against all the Gram-negative pathogen and C. albicans

Sequence: RRIRFPFPPFPWQWPPAGF [Neo1]
- MIC ([1]; BW25113, 18 h): 24 µM
- MIC ([1]; E. coli BW25113, 20% Mueller-Hinton broth in PBS, median of n ≥ 3): 16 µM
- inhibition of in vitro transcription/translation (luciferase activity) [2]: almost no inhibitory activity on protein synthesis
- MIC [3]: 32 µM
- resuspension in growth medium [4]: difficult to resuspend in 100% Mueller-Hinton broth
- MIC [5]: 24 µM
- MIC [6]: >64 µM
- MIC [7]: 64 µM
- MIC [8]: 64 µM
- MIC [9]: > 64 µM

Sequence: RRIRFRPPRLPRPRPRPWIPPRFPFPRIPGKR [Bal1]
- MIC [10, 14]: 0.5 µM
- MIC [10, 15]: 2 µM
- MIC [3]: 1.5 µM
- MIC [11, 16]: 2 to 4 µM
- MIC ([11]; against P. aeruginosa and E. faecium, listed as Bal): ≤ 4 µM
- MIC [11, 17]: ≤ 2 µM
- MIC [5]: 1 µM
- MIC [6]: 4 µM
- MIC [8]: 0.5 µM

Sequence: RRIRIRPPRLPRPRPRPWFPPRFPIPRIPGKR [Lip1]
- MIC [10, 14]: 0.5 µM
- MIC [10, 15]: 1.5 µM
- MIC [3]: 2 µM
- MIC [11, 16]: 2 to 4 µM
- MIC ([11]; against P. aeruginosa and E. faecium, listed as Lip): ≤ 4 µM
- MIC [11, 17]: ≤ 2 µM
- MIC [5]: 0.5 µM
- MIC [6]: 4 µM
- MIC [8]: 0.5 µM

Sequence: RRIRPRPPRLPRPRPRPLPFPRPGPRPIPRPLPFP [Bac7(1-35), reference compound]
- MIC [10, 14]: 2 µM
- MIC [10, 15]: 8 µM
- MIC [3]: 2 µM
- MIC [5]: 1 µM
- MIC [6]: 64 µM
- MIC [8]: 0.5 µM
- MIC [12]: >64 µM

Sequence: RRIPFWPPNLPGPRRPPWFLPDFRIPRIPRKR [Orc1]
- MIC [10, 15]: 2 µM
- MIC [3]: 4 µM
- MIC [5]: 2 µM
- MIC [6]: 16 µM
- MIC [8]: 8 µM

Sequence: RRIPFWPIPLRWQWPPPWFPPSFPIPRISRKR [Del1]
- hemolytic effect [13]: relatively high hemolytic effect
- MIC [10, 14]: 1 µM
- MIC [10, 15]: 8 µM
- MIC [3]: 8 µM
- MIC [5]: 4 µM
- MIC [6]: 4 µM
- MIC [8]: 8 µM
